Bridges are numbered along the chain shown (N, C = ends). Where no end group is shown, it is not given here.
System: PCSK9
Format: binding, human
Details: for S/N: spot phage ELISA signal-to-noise on PCSK9; for s/n ratio: ratio of signal for target protein over BSA background

| Sequence | S/N | s/n ratio |
| --- | --- | --- |
| GCGYWYRIWFCKQDSDCLAGCVCGPNGFCG (disulfide (positions not given here)) [PCSK9 EET I-II 9] | 9.4 | – |
| GCGYWYRVWFCKQDSDCLAGCVCQEPGPCG (disulfide (positions not given here)) [PCSK9 EET I-II 3] | 6.4 | – |
| GCHEGYWWRQWFCKQDSDCLAGCVCGPNGFCG (disulfide (positions not given here)) [PCSK9 EET I-II 19] | 20.5 | – |
| GCNLGYWWKQWFCKQDSDCLAGCVCERPRDCG (disulfide (positions not given here)) [PCSK9 EET I-II 2] | 6.1 | – |
| GCQQGYWWWYWFCKQDSDCLAGCVCGPNGFCG (disulfide (positions not given here)) [PCSK9 EET I-II 13] | 26.0 | – |
| GCSWVPYWCKQDSDCLAGCVCWEMVWCD (disulfide (positions not given here)) [PCSK9 EET I-II 6] | 7.0 | – |
| GCWWWGRIHCKQDSDCLAGWGQHCG (disulfide (positions not given here)) [PCSK9 EET I-II 15] | 44.9 | – |
| GCYHGYWYITWFCKQDSDCLAGCVCSQDEQCG (disulfide (positions not given here)) [PCSK9 EET I-II 14] | 17.0 | – |
| GPAHSLFGMCGGIDYSGPTVCASGTTCHVLNPTTSHCLPRAS (disulfide (positions not given here)) [PCSK9 CBD 8] | 5.0 | – |
| GPTHSTYGQCGGIGYSGQSVCASGTTCQVLWAALSWCLPGAS (disulfide (positions not given here)) [PCSK9 CBD 12] | 7.8 | – |
| GPTQSAFGPCGGIGYSGPTVCASGTTCQVLSPDVSQCLPGAS (disulfide (positions not given here)) [PCSK9 CBD 5] | 2.6 | – |
| GPTQSAYGQCGGIGYSGPTVCASGTTCQVLWPQVSWCLPGAS (disulfide (positions not given here)) [PCSK9 CBD 23] | 13.9 | – |
| GPTQSDYGMCGGIGYSGPTVCASGTTCQVLDPYTSQCLPGAS (disulfide (positions not given here)) [PCSK9 CBD 28] | 14.2 | – |
| GPTQSEYGMCGGIGYSGPTVCASGTTCQVLDPMTSQCLPGAS (disulfide (positions not given here)) [PCSK9 CBD 3] | 2.6 | – |
| GPTQSEYGMCGGIGYSGPTVCASGTTCQVLDPTTSQCLPGAS (disulfide (positions not given here)) [PCSK9 CBD 10] | 7.2 | – |
| GPTQSEYGMCGGIGYSGPTVCASGTTCQVLDPTTSQCLPGAS (disulfide (positions not given here)) [PCSK9 CBD 17] | 11.3 | – |
| GPTQSHYGLCGGIGYSGPTVCASGTTCQVLSPEFSQCLPGAS (disulfide (positions not given here)) [PCSK9 CBD 13] | 8.0 | – |
| GPTQSKYGMCGGIGYSGPTVCASGTTCQVLDPYTSQCLPGAS (disulfide 10-27, 21-37 (inferred)) [PCSK9FL_CBD2] | – | 26.8 |
| GPTQSKYGMCGGIGYSGPTVCASGTTCQVLDPYTSQCLPGAS (disulfide (positions not given here)) [PCSK9 CBD 14] | 8.8 | – |
| GPTQSLFGMCGGIGYSGPTVCASGTTCQVLYPTTSRCLPGAS (disulfide (positions not given here)) [PCSK9 CBD 20] | 18.0 | – |
| GPTQSMCGMCGGIGYSGPTVCASGTTCQVLDPHTSQCLPGAS (disulfide (positions not given here)) [PCSK9 CBD 18] | 14.0 | – |
| GPTQSMYGMCGGIGYSGPTVCASGTTCQVLDPNTSQCLPGAS (disulfide (positions not given here)) [PCSK9 CBD 11] | 6.9 | – |
| GPTQSNYGMCGGIGYSGPTVCASGTTCQVLYPTTSRCLPGAS (also: bicyclic or more (positions not given here)) [PCSK9FL_CBD1] | – | 17.7 |
| GPTQSNYGMCGGIGYSGPTVCASGTTCQVLYPTTSRCLPGAS (disulfide (positions not given here)) [PCSK9 CBD 1] | 17.7 | – |

From paper PMC10977697 (PLOS ONE, 2024)
